Experimental data as given in the CheMixHub viscosity set.

Experiment: xn = mol fraction of the nth substance listed

CCCCN(CCCC)CCCC + CC(C)(C)O
viscosity [mPa·s], 101 kPa
Details | x2 = 0.0998 | x2 = 0.2 | x2 = 0.3 | x2 = 0.4 | x2 = 0.5001 | x2 = 0.5999 | x2 = 0.7 | x2 = 0.8 | x2 = 0.9006 | x2 = 0.9503
303.15 K | 1.189 | 1.202 | 1.267 | 1.324 | 1.394 | 1.499 | 1.637 | 1.878 | 2.323 | 2.732
308.15 K | 1.083 | 1.108 | 1.145 | 1.189 | 1.242 | 1.323 | 1.43 | 1.598 | 1.91 | 2.204
313.15 K | 0.9915 | 1.009 | 1.037 | 1.072 | 1.112 | 1.172 | 1.251 | 1.376 | 1.599 | 1.809
318.15 K | 0.9113 | 0.9236 | 0.9451 | 0.9707 | 1.003 | 1.048 | 1.104 | 1.197 | 1.356 | 1.514
323.15 K | 0.8405 | 0.8479 | 0.8641 | 0.8824 | 0.908 | 0.9401 | 0.9817 | 1.051 | 1.166 | 1.288

CN(C)c1ccccc1 + CC(C)=O
viscosity [mPa·s], 101 kPa
Details | 303.15 K | 308.15 K
x1 = 0.0782 | 0.409 | 0.374
x1 = 0.1356 | 0.494 | 0.448
x1 = 0.1965 | 0.584 | 0.535
x1 = 0.2551 | 0.668 | 0.614
x1 = 0.3205 | 0.757 | 0.698
x1 = 0.3921 | 0.844 | 0.781
x1 = 0.4724 | 0.925 | 0.857
x1 = 0.5558 | 0.992 | 0.921
x1 = 0.6214 | 1.033 | 0.958
x1 = 0.7086 | 1.072 | 0.995
x1 = 0.7784 | 1.095 | 1.018
x1 = 0.8565 | 1.118 | 1.046
x1 = 0.9221 | 1.138 | 1.069

CCCCN(CCCC)CCCC + CC(C)CC(C)(C)C
viscosity [mPa·s], 101 kPa
Details | x1 = 0.1106 | x1 = 0.2474 | x1 = 0.3947 | x1 = 0.4958 | x1 = 0.5982 | x1 = 0.793 | x1 = 0.8938
303.15 K | 0.505 | 0.5839 | 0.6783 | 0.7486 | 0.8256 | 0.9844 | 1.072
313.15 K | 0.4465 | 0.5109 | 0.5884 | 0.6462 | 0.7101 | 0.8423 | 0.9171

CC(=O)CC(C)=O + CC(C)CCO
298.15 K, 101 kPa
Details | viscosity [mPa·s]
x1 = 0.1 | 2.622
x1 = 0.2 | 1.997
x1 = 0.3 | 1.558
x1 = 0.4 | 1.26
x1 = 0.5 | 1.063
x1 = 0.6 | 0.933
x1 = 0.7 | 0.844
x1 = 0.8 | 0.778
x1 = 0.9 | 0.729

CC(C)(C)Br + CC(C)CO
viscosity [mPa·s], 101.3 kPa
Details | x1 = 0.1028 | x1 = 0.2047 | x1 = 0.3013 | x1 = 0.4041 | x1 = 0.5068 | x1 = 0.6029 | x1 = 0.7033 | x1 = 0.8031 | x1 = 0.905
298.15 K | 2.582 | 2.021 | 1.64 | 1.351 | 1.138 | 0.9943 | 0.8866 | 0.8146 | 0.757
313.15 K | 1.718 | 1.405 | 1.168 | 0.9825 | 0.8486 | 0.7553 | 0.688 | 0.6382 | 0.6044

CN(C)c1ccccc1 + CC(C)CO
303.15 K, 101 kPa
Details | viscosity [mPa·s]
x1 = 0.0545 | 2.804
x1 = 0.1056 | 2.755
x1 = 0.1875 | 2.663
x1 = 0.2546 | 2.576
x1 = 0.3526 | 2.434
x1 = 0.4278 | 2.316
x1 = 0.5047 | 2.189
x1 = 0.5869 | 2.044
x1 = 0.6514 | 1.926
x1 = 0.7348 | 1.767
x1 = 0.8025 | 1.628
x1 = 0.8621 | 1.501
x1 = 0.9285 | 1.345

CN(C)c1ccccc1 + CC(C)O
303.15 K, 101 kPa
Details | viscosity [mPa·s]
x1 = 0.0564 | 1.727
x1 = 0.1136 | 1.655
x1 = 0.1989 | 1.56
x1 = 0.2689 | 1.492
x1 = 0.3245 | 1.439
x1 = 0.3767 | 1.401
x1 = 0.4258 | 1.369
x1 = 0.4878 | 1.33
x1 = 0.5655 | 1.288
x1 = 0.6305 | 1.259
x1 = 0.7385 | 1.22
x1 = 0.8187 | 1.199
x1 = 0.9243 | 1.18

CCCCC(C)O (stereo not drawn) + CC(C)OC(C)C
viscosity [mPa·s], 100 kPa
Details | x2 = 0.0806 | x2 = 0.1592 | x2 = 0.2412 | x2 = 0.3508 | x2 = 0.4391 | x2 = 0.5594 | x2 = 0.6497 | x2 = 0.7378 | x2 = 0.8483 | x2 = 0.9386
293.15 K | 4.51 | 3.97 | 3.48 | 2.91 | 2.49 | 1.97 | 1.6 | 1.26 | 0.84 | 0.531
298.15 K | 3.61 | 3.16 | 2.76 | 2.3 | 1.97 | 1.56 | 1.275 | 1.02 | 0.706 | 0.465
303.15 K | 2.89 | 2.53 | 2.2 | 1.83 | 1.567 | 1.25 | 1.034 | 0.84 | 0.6 | 0.42
308.15 K | 2.38 | 2.08 | 1.825 | 1.53 | 1.32 | 1.06 | 0.88 | 0.715 | 0.52 | 0.38
313.15 K | 2 | 1.75 | 1.54 | 1.29 | 1.115 | 0.906 | 0.756 | 0.62 | 0.46 | 0.35
318.15 K | 1.69 | 1.49 | 1.31 | 1.11 | 0.962 | 0.783 | 0.66 | 0.55 | 0.416 | 0.32
323.15 K | 1.44 | 1.27 | 1.12 | 0.95 | 0.83 | 0.68 | 0.58 | 0.49 | 0.38 | 0.295

FC(F)(F)c1ccccc1 + CC(Cl)(Cl)Cl
298.15 K, 101.33 kPa
Details | viscosity [mPa·s]
x2 = 0.103 | 0.5617
x2 = 0.201 | 0.572
x2 = 0.301 | 0.5865
x2 = 0.402 | 0.6017
x2 = 0.502 | 0.6199
x2 = 0.602 | 0.6413
x2 = 0.701 | 0.6677
x2 = 0.8 | 0.7
x2 = 0.85 | 0.7179

CN(C)c1ccccc1 + CCC(=O)O
viscosity [mPa·s], 101 kPa
Details | x2 = 0.1014 | x2 = 0.2025 | x2 = 0.305 | x2 = 0.3966 | x2 = 0.5057 | x2 = 0.6027 | x2 = 0.6922 | x2 = 0.8012 | x2 = 0.8905 | x2 = 0.8987
298.15 K | 1.364 | 1.416 | 1.478 | 1.527 | 1.583 | 1.651 | 1.69 | 1.657 | 1.467 | –
303.15 K | – | – | – | – | – | – | – | – | – | 1.225

C=CC#N + CCC(=O)c1ccccc1
308.15 K, 101 kPa
Details | viscosity [mPa·s]
x2 = 0.1051 | 0.405
x2 = 0.1752 | 0.4545
x2 = 0.2496 | 0.513
x2 = 0.3126 | 0.5731
x2 = 0.4246 | 0.6893
x2 = 0.5385 | 0.8078
x2 = 0.6672 | 0.9571
x2 = 0.8184 | 1.161

CC(=O)CC(C)=O + CCC(C)(C)O
298.15 K, 101 kPa
Details | viscosity [mPa·s]
x1 = 0.1 | 2.481
x1 = 0.2 | 1.809
x1 = 0.3 | 1.39
x1 = 0.4 | 1.138
x1 = 0.5 | 0.987
x1 = 0.6 | 0.893
x1 = 0.7 | 0.827
x1 = 0.8 | 0.776
x1 = 0.9 | 0.733

CCC(C)(C)O + CCC(C)=O
Details | viscosity [mPa·s]
293.15 K, 101 kPa, x2 = 0.2341 | 2.105

CN(C)c1ccccc1 + CCC(C)=O
viscosity [mPa·s], 101 kPa
Details | 303.15 K | 308.15 K
x1 = 0.0689 | 0.487 | 0.438
x1 = 0.1256 | 0.574 | 0.516
x1 = 0.1905 | 0.671 | 0.605
x1 = 0.2652 | 0.776 | 0.701
x1 = 0.3256 | 0.853 | 0.773
x1 = 0.3905 | 0.926 | 0.84
x1 = 0.4621 | 0.993 | 0.905
x1 = 0.5362 | 1.048 | 0.958
x1 = 0.6058 | 1.086 | 0.997
x1 = 0.6753 | 1.113 | 1.025
x1 = 0.7416 | 1.129 | 1.045
x1 = 0.8056 | 1.14 | 1.06
x1 = 0.8826 | 1.149 | 1.076

C=CC#N + CCC(C)O
viscosity [mPa·s], 101.33 kPa
Details | x1 = 0.1033 | x1 = 0.2014 | x1 = 0.301 | x1 = 0.4055 | x1 = 0.5087 | x1 = 0.6049 | x1 = 0.7009 | x1 = 0.803 | x1 = 0.8992
298.15 K | 1.828 | 1.319 | 0.99 | 0.775 | 0.63 | 0.536 | 0.456 | 0.418 | 0.378
303.15 K | 1.567 | 1.165 | 0.887 | 0.704 | 0.582 | 0.499 | 0.438 | 0.391 | 0.358
308.15 K | 1.361 | 1.024 | 0.799 | 0.644 | 0.539 | 0.465 | 0.413 | 0.373 | 0.342

CC(C)(C)Br + CCC(C)O
viscosity [mPa·s], 101.3 kPa
Details | x1 = 0.1001 | x1 = 0.2023 | x1 = 0.3034 | x1 = 0.4041 | x1 = 0.5076 | x1 = 0.605 | x1 = 0.7049 | x1 = 0.8014 | x1 = 0.8997
298.15 K | 2.174 | 1.629 | 1.302 | 1.105 | 0.9569 | 0.876 | 0.8006 | 0.768 | 0.7327
313.15 K | 1.386 | 1.108 | 0.9333 | 0.8074 | 0.7201 | 0.6655 | 0.6235 | 0.6023 | 0.5859

CCCCN(CCCC)CCCC + CCC(C)O
303.15 K, 101 kPa
Details | viscosity [mPa·s]
x1 = 0.01127 | 2.456
x1 = 0.0218 | 2.439
x1 = 0.03265 | 2.423
x1 = 0.04214 | 2.409
x1 = 0.04957 | 2.399
x1 = 0.05793 | 2.387
x1 = 0.06851 | 2.372
x1 = 0.07785 | 2.359
x1 = 0.08821 | 2.345

CN(C)c1ccccc1 + CCC(C)O
303.15 K, 101 kPa
Details | viscosity [mPa·s]
x1 = 0.0452 | 2.686
x1 = 0.0845 | 2.638
x1 = 0.1321 | 2.582
x1 = 0.1893 | 2.512
x1 = 0.2452 | 2.442
x1 = 0.2756 | 2.402
x1 = 0.3065 | 2.362
x1 = 0.3655 | 2.279
x1 = 0.4292 | 2.183
x1 = 0.4906 | 2.086
x1 = 0.6021 | 1.893
x1 = 0.7323 | 1.65
x1 = 0.8911 | 1.353
